Data reported in patent US10426773B2, “Systems pharmacology for treating ocular disorders” (Case Western Reserve Univeristy, priority 2011, dated 2019).
Counter-ions that a name gives are not always drawn.

What was measured:
[1] = target: T1, α1A-adrenergic receptor (ADRA1A) (Homo sapiens, UniProt P35348); experiment: BRET assay for G protein activation in live cells, ADRA1A-Gq; assay type: cell-based; details: for antagonistic activity on ADRA1A (inhibition of BRET signal): preincubation with ligand, then 1 μM noradrenaline
T1 construct: host or cells: HEK293T/17
T1 sequence (P35348 1-466): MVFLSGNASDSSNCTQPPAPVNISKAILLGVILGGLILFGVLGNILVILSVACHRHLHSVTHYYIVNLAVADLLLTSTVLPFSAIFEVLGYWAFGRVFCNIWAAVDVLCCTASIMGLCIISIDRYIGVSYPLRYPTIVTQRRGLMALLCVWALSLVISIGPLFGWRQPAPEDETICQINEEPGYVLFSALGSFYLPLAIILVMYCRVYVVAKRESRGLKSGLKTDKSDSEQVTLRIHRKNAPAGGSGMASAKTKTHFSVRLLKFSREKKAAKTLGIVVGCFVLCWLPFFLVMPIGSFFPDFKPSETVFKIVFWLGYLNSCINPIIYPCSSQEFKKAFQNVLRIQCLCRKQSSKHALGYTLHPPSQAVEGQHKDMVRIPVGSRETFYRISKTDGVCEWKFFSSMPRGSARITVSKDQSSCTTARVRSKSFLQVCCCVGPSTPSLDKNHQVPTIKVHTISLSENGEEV
Excerpt: (§1) FIGS. 35(A-C) illustrate characterizing the activity of BRM, MTP, DOX, and TAM on dopamine and adrenaline receptors (A) Schematic representation of the BRET assay used to evaluate actions of drugs on selected GPCRs. […] The free Venus-Gβγ then interacts with the Gβγ-effector mimetic masGRK3ct-Nluc to produce the BRET signal. GDP, guanosine diphosphate; GRK, G protein-coupled receptor kinase; Nluc, nanoluciferase. (B) Left: Representative BRET signal traces recorded upon activation of D4R with indicated drugs in cells expressing Gαo and Venus-Gβγ, illustrating the agonism assay. Right: Representative traces of D2R responses to 1 μM dopamine in the absence (control) or presence of indicated drugs, illustrating antagonism assay. Note that, in the antagonism assay shown, the black trace overlaps with the red trace and therefore is not visible. (C) Top: Quantification of agonistic activity of ligands on D2R, D4R, D1R, and ADRA1A. D2R-GO, D4R-GO, D1R-Gs, and ADRA1A-Gq signaling were reconstituted in HEK293T/17 cells by transient transfection separately. Maximum amplitudes induced by dopamine (DA; 100 μM), noradrenaline (NA; 100 μM), BRM (25 μM), MTP (100 μM), DOX (50 μM), and TAM (100 μM) were plotted as bar graphs. […] The activity is plotted as percent inhibition. Data are means±SD. Results are representative of two independent experiments each performed with 12 replicates.
(§2) Dopamine D1, dopamine D4, and α1A-adrenergic receptors were purchased from cDNA Resource Center (Bloomsburg University, Bloomsburg, Pa.). Plasmid encoding the Flag-tagged, long isoform of the D2 dopamine receptor was a gift from A. Kovoor (University of Rhode Island). pCMV5 plasmids encoding GαoA were gifts from H. Itoh (Nara Institute of Science and Technology, Japan). Plasmids encoding Venus 156-239-Gβ1 and Venus 1-155-Gγ2 were gifts from N. Lambert (Georgia Regents University). Plasmids encoding RGS9-2, Gβ5S, R7BP, and masGRK3ct-Nluc were previously described.
(§3) BRET experiments were performed as previously reported with slight modifications. […] BRET measurements were performed using a microplate reader (POLARstar Omega, BMG Labtech) equipped with two emission photomultiplier tubes. […] The BRET signal is determined by calculating the ratio of the light emitted by Gβ1γ2-Venus (535 nm) over the light emitted by masGRK3ct-Nluc (475 nm). The average baseline value recorded before agonist stimulation was subtracted from BRET signal values, and the resulting difference (ABRET ratio) was obtained.
(§4) We used a real-time kinetic assay in which G protein activation by GPCRs is quantified by monitoring changes in the bioluminescence resonance energy transfer (BRET) signal between Venus-tagged Gβγ and its luciferase-tagged reporter in living cells (FIG. 35A). […]

Abca4−/−Rdh8−/− mice [2] = experiment: Bright light-induced retinal degeneration in Abca4−/−Rdh8−/− mice, retinal histology and immunohistochemistry; assay type: in vivo, mouse; details: pretreatment before light 10,000 lux 30 min; 7-10 days after light exposure
Experimental: Retinal histology and immunohistochemistry (IHC) was performed as previously described. Briefly, eye cups free of cornea, lens and vitreous body were fixed in 2% glutaraldehyde/4% paraformaldehyde and processed for Epon embedding. Sections 1 am thick were cut and stained with toluidine blue for histological examination under a light microscope. IHC analysis was performed on 12 am thick cryosections prepared from 4% paraformaldehyde-fixed eye cups. Collected cryosections were subjected to examination for rhodopsin, PNA and DAPI expression.
Retinal immunohistochemistry (IHC) was carried out as previously described. Briefly, eyes were enucleated and eye cups were made to eliminate cornea, lens and vitreous body and fixed in 4% paraformaldehyde and processed for cryosectioning. 12 am thick cryosections were collected cryosections and subjected to examination for rhodopsin, peanut agglutinin lectin (PNA) and DAPI expression.
Retinal immunohistochemistry (IHC) was performed as previously described. Briefly, eyes were enucleated and, after removal of the cornea, lens and vitreous body, eye cups were fixed in 4% paraformaldehyde and processed for cryosectioning. Twelve μm thick cryosections were cut, collected and examined for rhodopsin expression, peanut agglutinin lectin (PNA) for cone sheath and nuclear DAPI staining. […]

[3] = target: T2, Dopamine D1 receptor (D1R) (Homo sapiens, UniProt P21728); experiment: BRET assay for G protein activation in live cells, D1R-Gs; assay type: cell-based; details: for antagonistic activity on D1R (inhibition of BRET signal): preincubation with ligand, then 1 μM dopamine
T2 construct: host or cells: HEK293T/17
T2 sequence (P21728 whole entry): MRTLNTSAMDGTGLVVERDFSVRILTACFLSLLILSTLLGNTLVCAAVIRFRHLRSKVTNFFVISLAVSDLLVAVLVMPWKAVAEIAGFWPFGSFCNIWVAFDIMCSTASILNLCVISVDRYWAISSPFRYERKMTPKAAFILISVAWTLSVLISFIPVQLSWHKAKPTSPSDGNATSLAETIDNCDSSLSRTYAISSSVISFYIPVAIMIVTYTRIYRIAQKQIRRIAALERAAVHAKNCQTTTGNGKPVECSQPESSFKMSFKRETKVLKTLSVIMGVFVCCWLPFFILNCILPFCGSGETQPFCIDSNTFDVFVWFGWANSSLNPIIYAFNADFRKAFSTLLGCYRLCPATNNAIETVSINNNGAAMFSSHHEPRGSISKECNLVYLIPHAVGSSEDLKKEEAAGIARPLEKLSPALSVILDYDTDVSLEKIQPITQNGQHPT
Excerpt: as §1, §2, §3, §4

Abca4−/−Rdh8−/− mice [4] = experiment: Bright light-induced retinal degeneration in Abca4−/−Rdh8−/− mice, SLO autofluorescence imaging; assay type: in vivo, mouse; details: pretreatment before light 10,000 lux 30 min; SLO 8-9 days after light exposure
Experimental: SLO (Heidelberg Engineering, Heidelberg, Germany) was carried out for whole fundus imaging of mouse retinas. Mice were anesthetized by intraperitoneal injection of anesthetic cocktail indicated above, which was followed by pupil dilation using 1% tropicamide prior to SLO imaging under autofluorescence mode.
SLO (Heidelberg Engineering) was carried out for in vivo whole fundus imaging of mouse retinas. […] Numbers of autofluorescent spots were counted and subjected to statistical analyses as described below.
SLO (Heidelberg Engineering) was carried out for whole fundus imaging of mouse retinas in vivo. Mice were anesthetized, and their pupils were dilated as described above. SLO images were then acquired in the autofluorescence mode.

BALB/c mice = experiment: Light-induced retinal degeneration in BALB/c mice, retinal morphology (OCT, histology, IHC); assay type: in vivo, mouse; details: for retinal morphology / ONL (OCT, histology): ip pretreatment 30 min before 10,000 lux, 7 days after light
[5] = HEK293T/17 cells, BRM 25 μM, MTP 100 μM, DOX 50 μM, TAM 100 μM

SMILES	antagonistic activity on ADRA1A (inhibition of BRET signal) [1]	retinal histology / immunohistochemistry (rhodopsin, PNA, DAPI; ONL) (Abca4−/−Rdh8−/− mice [2])	antagonistic activity on D1R (inhibition of BRET signal) [3]	retinal autofluorescence spots by SLO imaging (Abca4−/−Rdh8−/− mice [4])	PNA staining of cone photoreceptors (BALB/c mice; BRM 2.5 mg/kg bw, MTP 10 mg/kg bw)	retinal morphology / ONL (OCT, histology) (BALB/c mice)	agonistic activity on ADRA1A (BRET signal) [1, 5]	agonistic activity on D1R (BRET signal) [3, 5]
CCOc1ccccc1OCCN[C@H](C)Cc1ccc(OC)c(S(N)(=O)=O)c1.Cl [Tamsulosin]	antagonistic activity	substantially preserved photoreceptor morphology	partial antagonist	significantly protected retinas from developing light-induced damage	–	–	–	–
COCCc1ccc(OCC(O)CNC(C)C)cc1 (centres unmarked) [MTP, metoprolol tartrate]	no agonistic or antagonistic effects	preservation of the ONL and photoreceptor cells	no agonistic or antagonistic effects	lacked these autofluorescent spots	nearly normal pattern of PNA staining	preserved the ONL	no agonistic or antagonistic effects	no agonistic or antagonistic effects
COc1cc2nc(N3CCN(C(=O)C4COc5ccccc5O4)CC3)nc(N)c2cc1OC.CS(=O)(=O)O (centres unmarked) [Doxazosin]	full antagonist	substantially preserved photoreceptor morphology	partial antagonistic effect	significantly protected retinas from developing light-induced damage	–	retinal morphology of drug-treated mice was maintained	–	–
